The target in one assay is T1, ACE (Rattus norvegicus, UniProt P47820).
T1 construct: membrane fraction prepared from rat lung; from tissue; host or cells: rat lung, membrane fraction (method of Wu-Wong et al.)
T1 sequence (P47820 36-1313): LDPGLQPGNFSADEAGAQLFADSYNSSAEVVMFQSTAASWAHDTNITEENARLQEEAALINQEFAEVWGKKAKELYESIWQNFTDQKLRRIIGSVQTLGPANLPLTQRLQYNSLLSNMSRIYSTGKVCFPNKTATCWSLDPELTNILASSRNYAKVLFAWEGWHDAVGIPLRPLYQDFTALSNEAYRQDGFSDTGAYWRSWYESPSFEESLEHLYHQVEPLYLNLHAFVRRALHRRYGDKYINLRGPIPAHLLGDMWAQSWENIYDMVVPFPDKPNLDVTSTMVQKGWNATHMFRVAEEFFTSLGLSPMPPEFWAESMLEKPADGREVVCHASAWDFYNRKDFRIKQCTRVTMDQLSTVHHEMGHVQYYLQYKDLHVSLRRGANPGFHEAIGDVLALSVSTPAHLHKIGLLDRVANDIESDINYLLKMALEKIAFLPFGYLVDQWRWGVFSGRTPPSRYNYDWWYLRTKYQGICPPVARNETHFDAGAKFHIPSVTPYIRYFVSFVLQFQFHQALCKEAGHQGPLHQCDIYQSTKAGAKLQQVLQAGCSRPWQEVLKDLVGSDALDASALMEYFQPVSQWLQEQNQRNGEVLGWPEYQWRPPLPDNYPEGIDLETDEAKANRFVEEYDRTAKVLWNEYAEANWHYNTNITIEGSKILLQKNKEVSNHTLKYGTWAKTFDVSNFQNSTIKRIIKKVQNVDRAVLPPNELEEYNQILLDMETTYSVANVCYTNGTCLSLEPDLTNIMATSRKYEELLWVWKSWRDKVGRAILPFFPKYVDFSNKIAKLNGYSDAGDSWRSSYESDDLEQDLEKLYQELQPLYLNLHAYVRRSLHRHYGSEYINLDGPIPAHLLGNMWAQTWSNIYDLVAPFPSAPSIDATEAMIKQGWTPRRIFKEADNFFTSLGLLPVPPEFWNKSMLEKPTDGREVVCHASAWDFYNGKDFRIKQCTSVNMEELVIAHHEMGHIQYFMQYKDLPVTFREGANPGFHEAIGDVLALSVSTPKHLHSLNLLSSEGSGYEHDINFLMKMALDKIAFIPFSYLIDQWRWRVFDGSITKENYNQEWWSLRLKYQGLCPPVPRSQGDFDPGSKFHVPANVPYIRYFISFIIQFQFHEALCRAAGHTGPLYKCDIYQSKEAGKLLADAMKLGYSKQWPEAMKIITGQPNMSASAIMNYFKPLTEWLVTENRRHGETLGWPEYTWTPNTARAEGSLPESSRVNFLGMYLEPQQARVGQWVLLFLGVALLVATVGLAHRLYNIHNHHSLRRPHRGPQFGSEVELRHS
In words: ACE inhibition activity (Experiment E-1). Type of assay: biochemical. The note with it: rat lung membrane fraction, pH 8.3. On the procedure: As a source of the enzyme ACE, a membrane fraction prepared from rat lung in accordance with the method of Wu-Wong et al. (Characterization of Endthelin Converting Enzyme in Rat Lung., Jinshyum R. Wu-Wong, Gerald, P. Budzik, Edward M. Devine and Terry J. Opgenorth, Biochem. Biophys. Res. Commun., 1990, 171, 1291-1296.) was used. The ACE activity was determined with the use of a modification (modified to a borate buffer pH 8.3) of the method of Cushman and Cheung (Spectrophotometric Assay and Properties of the Angiotensin-Converting Enzyme of Rabbit Lung., Cushman D. W. and Cheung H. S., 1971, 20, 1637-1648.). Now the procedure will be briefly described.
In the presence of ACE, the hippurate liberated from hippuryl-histidyl-leucine (Hippuryl-His-Leu (PeptideInstitute Inc., Japan)) was extracted with ethyl acetate and then the absorbance was measured at a wavelength of 228 nm.
(§1) To determine the NEP inhibition activity and the ACE inhibition activity, the inhibitor was added to the assay systems of both enzyme activities as described above in such a manner as to give the final concentrations of 1, 3, 10, 30, 100, […] and 1000 nM and inhibition curves were prepared. Then the concentration at which 50% inhibition was achieved was taken as IC50.

The next assay concerns the target T2, NEP (Rattus norvegicus, UniProt P07861).
T2 sequence (P07861 1-750): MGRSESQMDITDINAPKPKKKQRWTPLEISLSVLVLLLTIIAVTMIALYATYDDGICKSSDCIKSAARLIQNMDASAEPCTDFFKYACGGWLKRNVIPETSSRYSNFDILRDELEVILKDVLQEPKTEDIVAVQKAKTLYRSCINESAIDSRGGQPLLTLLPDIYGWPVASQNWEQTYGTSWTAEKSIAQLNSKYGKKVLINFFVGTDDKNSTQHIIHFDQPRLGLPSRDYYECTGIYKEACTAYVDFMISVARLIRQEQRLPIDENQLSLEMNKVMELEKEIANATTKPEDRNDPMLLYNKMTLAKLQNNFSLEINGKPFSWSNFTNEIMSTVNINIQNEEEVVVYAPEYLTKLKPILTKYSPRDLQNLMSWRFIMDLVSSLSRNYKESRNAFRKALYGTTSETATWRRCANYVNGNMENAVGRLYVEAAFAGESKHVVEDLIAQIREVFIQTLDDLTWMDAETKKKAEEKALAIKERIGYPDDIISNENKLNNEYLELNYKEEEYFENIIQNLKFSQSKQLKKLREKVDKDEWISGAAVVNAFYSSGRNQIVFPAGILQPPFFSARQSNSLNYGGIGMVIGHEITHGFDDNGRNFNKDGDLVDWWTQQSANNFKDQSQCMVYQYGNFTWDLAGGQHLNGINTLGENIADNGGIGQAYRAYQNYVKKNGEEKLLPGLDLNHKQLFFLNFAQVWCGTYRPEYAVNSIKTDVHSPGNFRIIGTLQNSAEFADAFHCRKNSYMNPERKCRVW
The assay can be described thus: NEP inhibition activity (Experiment E-1). Type of assay: biochemical. Conditions: rat renal cortex membrane fraction. Also on record: membrane fraction prepared from rat renal cortex; from tissue; host or cells: rat renal cortex, membrane fraction (method of Booth and Kenny). On the procedure:
As a source of the enzyme NEP, a membrane fraction prepared from rat renal cortex in accordance with the method of Booth and Kenny (A Rapid Method for the Purification of Microvilli from Rabbit Kidney., Andrew G. Booth and A. John Kenny, Biochem. j., 1974, 142,575-581.) was employed. The NEP activity was determined in accordance with the method of Orlowsky and Wilk (Purification and Specificity of a Membrane-Bound Metalloendpeptidase from Bovine Pituitaries., Marian Orlowsky and Shrwin Wilk, Biochemistry, 1981, 20, 4942-4950.). Now the procedure will be briefly described.
As a substrate, benzoyl-glycyl-arginyl-arginyl-2-naphthylamide (benzoyl-Gly-Arg-Arg-2 naphthylamide (Nova Biochem, Switzerland)) was used. In the presence of an NEP enzyme preparation and excessive leucine aminopeptidase (sigma chemical Co., U.S.A.), the liberated naphthylamine was made to undergo color development with first garnet (Sigma chemical Co., U.S.A.), followed by the measurement of the absorbance at a wavelength of 540 nm.
as §1

Regarding `CC[C@H](C)[C@H](S)C(=O)N[C@H]1Cc2ccc(-c3ccccc3)cc2[C@H]2CCC[C@@H](C(=O)O)N2C1=O` [Example C-14, [4S-[4α,7α(R*),12bβ]]-7-[[(2S,3S)-3-Methyl-1-oxo-2-thiopentyl]amino]-6-oxo-11-phenyl-1,2,3,4,6,7,8,12b-octahydropyrido[2,1-a][2]benzazepine-4-carboxylic acid], the IC50 (in general, the concentration that inhibits the measured activity by half) came out at 11 nM on ACE and 14 nM against NEP.

Take `CC(C)[C@H](S)C(=O)N[C@H]1Cc2ccc(-c3ccccc3)cc2[C@H]2CCC[C@@H](C(=O)O)N2C1=O` [Example E-10, [4S-[4α,7α(R*),12bβ]]-7-[(S)-2-Mercapto-3-methylbutyrylamino]-6-oxo-11-phenyl-1,2,3,4,6,7,8,12b-octahydropyrido[2,1-a][2]benzazepine-4-carboxylic acid]: the half-maximal inhibitory concentration (IC50) on ACE came to 10 nM; against NEP it was 8.2 nM.

For `O=C(N[C@H]1Cc2ccccc2[C@H]2CCC[C@@H](C(=O)O)N2C1=O)[C@@H](S)Cc1ccccc1` [Comp. cpd. E-1, [4S-[4α,7α(R*),12bβ]]-7-[(1-oxo-2-(S)-thio-3-phenyl-propyl)amino]-1,2,3,4,6,7,8,12b-octahydro-6-oxopyrido-[2,1-a][2]benzazepine-4-carboxylic acid, reference compound], the IC50 is 9 nM against ACE and 27 nM against NEP.

For the origin of these results see patent US5679671A, “Amino acid derivative” (Eisai Co., Ltd., priority 1993, dated 1997).
